# According to patent publication US11857578B2, “Extract and dermatological composition comprising same, for treating sensitive skin” (PIERRE FABRE DERMO-COSMETIQUE, priority 2018, dated 2024):
# What was measured:
# Format in all cases: cell-based
# HBD2 = test: RT-qPCR gene expression of innate immunity marker HBD2 in normal human epidermal keratinocytes; settings: 1.5 mM, 48 h incubation, three donors
# Description: (§1) The purpose of this study is to evaluate the effects of the bacterial extract according to the invention on the gene expression of normal human epidermal keratinocytes by an RT-PCR technique on two genes related to innate immunity.
# (§2) The study is carried out on normal human epidermal keratinocytes from three donors. These cells are used at their third passage. These cells are cultured in a standard medium supplemented with epidermal growth factor (EGF), pituitary extract (PE) and gentamycin, using conventional laboratory procedures.
# (§3) The bacterial extract according to the invention is tested at three concentrations: 0.4, 2 and 10 μg/ml (μg/ml protein).
# (§4) At the same time, calcium chloride is tested at 1.5 mM as reference product.
# (§5) The keratinocytes are seeded in 24-well plates (50,000 cells per well) and cultured for 24 hours in a culture medium. […]
# (§6) The expression of markers is analyzed by the RT-qPCR method on total RNA extracted from the cells under each condition. […] The quantity and quality of RNA are evaluated by capillary electrophoresis. cDNA is synthesized by reverse transcription of total RNA in the presence of oligo(dT) and Transcriptor Reverse Transcriptase. […]
# (§7) Fluorescence incorporation into amplified DNA is continuously measured during PCR cycles. […]
# (§8) The parameter RQ (relative quantification) is defined as the relative expression/100. […]
# S100A7 = test: RT-qPCR gene expression of innate immunity marker S100A7 in normal human epidermal keratinocytes; settings: 1.5 mM, 48 h incubation, three donors
# Description: as §1, §2, §3, §4, §5, §6, §7, §8
# IL-1β = IL-1β release by human epidermal keratinocytes activated by substance P (ELISA)
# Description: (§9) The purpose of this study is to evaluate the modulatory properties of the bacterial extract according to the invention in skin inflammation. To that end, an in vitro experimental approach based on the measurement of production and release of tumor necrosis factor-alpha (TNF-α) and interleukin-1 beta (IL-1β) by human epidermal keratinocytes, activated by substance P, is proposed as an in vitro model of cutaneous neurogenic inflammation. The study is carried out on normal human epidermal keratinocytes; these cells are obtained from newborn foreskin. These cells are cultured in a serum-free medium using conventional laboratory procedures. The determination of markers of cutaneous neurogenic inflammation is carried out on these keratinocytes cultured in a medium in the absence (control condition) or in the presence of the compounds to be tested (bacterial extract according to the invention and reference product), and optionally exposed to substance P. The keratinocytes are treated 3 hours before the stress induced by substance P and during the following 24 hours. Levels of proinflammatory cytokines (TNF-α and IL-1β) are quantified 24 h after the induction of inflammatory stress by the addition of substance P (0.5 μM). […] TNF-α and IL-1β productions are measured in the incubation media and quantified by the enzyme-linked immunosorbent assay (ELISA).
# TNF-α = TNF-α release by human epidermal keratinocytes activated by substance P (ELISA)
# Description: as §9
# [1] = 1 μM, keratinocytes treated 3 h before and 24 h during substance P (0.5 μM)
Structure (SMILES),"HBD2 gene expression, Mean (multiplicative factor, RQ vs control) (HBD2)","HBD2 gene expression, Mean (multiplicative factor, RQ vs control) (HBD2; listed as calcium chloride)","S100A7 gene expression, Mean (multiplicative factor, RQ vs control) (S100A7)","S100A7 gene expression, Mean (multiplicative factor, RQ vs control) (S100A7; listed as calcium chloride)",IL-1β mean (IL-1β; [1]) [pg/mL],"inhibition at 1 µM (IL-1β; Homo sapiens, Keratinocyte, versus Cont SP(+), substance P 0.5 μM, 24 h, read-out: IL-1β % Inh) [%]",TNF-α mean (TNF-α; [1]) [pg/mL],"inhibition at 1 µM (TNF-α; Homo sapiens, Keratinocyte, versus Cont SP(+), substance P 0.5 μM, 24 h, read-out: TNF-α % Inh) [%]"
"[Ca+2].[Cl-].[Cl-] [Calcium chloride, calcium chloride]",5.8,strong expression,4.1,strong expression,–,–,–,–
"COc1ccccc1CN[C@H]1C2CCN(CC2)[C@H]1C(c1ccccc1)c1ccccc1 [NK-1R inh, CP96345]",–,–,–,–,132.5,91,4.6,90
